In PubChem BioAssay AID246 (DTP/NCI, 2004) one finds T/C data, which are given here for eleven molecules.

Molecules are shown by their SMILES. Several values for one entry are separate records, joined by “and”; a condition that tells them apart may be missing. Identical values can stand only once. Inconclusive results and toxic doses are left out. Numbered stars: 1 amine (or outer) side, 2 acyl side, 3 side chain; on linkers, the order of the positions; unused ones are H or OH. Bridge positions count the residues as written; N and C are the ends. Square brackets hold non-standard residues; d marks the D form. Peptide text beside a SMILES is read from it. I, II: the chains in the order shown. Actinocin(9to1) = Cc1c2oc3c(C)ccc(C(=O)[*:1])c3nc-2c(C(=O)[*:2])c(N)c1=O; aThr = C[C@H](O)[C@H](N)C(=O)O; NMeV = CN[C@H](C(=O)O)C(C)C; Sar = CNCC(=O)O

The subject of the test is BDF1 mice, P1081 chloroleukemia ip, survival T/C. The test can be described thus: NCI In Vivo Anticancer Drug Screen. Data for tumor model P1081 Chloroleukemia (intraperitoneal) in B6D2F1 (BDF1) mice. Particulars: endpoint: mean survival time, higher = longer survival. The procedure:
The antitumor activity of compounds was measured in mice bearing transplantable tumors. Survival or tumor size were measured and the results are expressed as the measurement made in the treated group (T) divided by the measurement made in the vehicle treated control group (C). The tumor model used in this assay is P1081 Chloroleukemia (intraperitoneal) in B6D2F1 (BDF1) mice

Where [1] appears, read: dose: 1.6 mg/kg/injection, schedule: Q01DX Z (ip), vehicle: carboxymethylcellulose (CMC).
[2] abbreviates: dose: 12.5 mg/kg/injection, schedule: Q01DX Z (ip), vehicle: carboxymethylcellulose (CMC).
Setting [3] is: dose: 25.0 mg/kg/injection, schedule: Q01DX Z (ip), vehicle: carboxymethylcellulose (CMC).
Setting [4] is: dose: 3.13 mg/kg/injection, schedule: Q01DX010 (ip), vehicle: saline.
Setting [5] is: dose: 6.25 mg/kg/injection, schedule: Q01DX010 (ip), vehicle: saline.

As for `CN(C)[C@@H]1C(=O)C(C(N)=O)=C(O)[C@@]2(O)C(=O)C3=C(O)c4c(O)cccc4C[C@H]3C[C@@H]12`, the T/C (dose: 7.5 mg/kg/injection, schedule: Q01DX010 (ip), vehicle: saline) is 100 % of control; the T/C (dose: 15.0 mg/kg/injection, schedule: Q01DX010 (ip), vehicle: saline) is 90 % of control and 100 % of control; the T/C (dose: 30.0 mg/kg/injection, schedule: Q01DX010 (ip), vehicle: saline) was 100 % of control and 105 % of control; the T/C (dose: 60.0 mg/kg/injection, schedule: Q01DX010 (ip), vehicle: saline) is 111 % of control.
As for `C[n+]1c2ccccc2nc2c(N)cc(N)cc21`, the T/C under setting [1] was 100 % of control, the T/C under setting [2] was 110 % of control and the T/C under setting [3] was 101 % of control.
As to `COc1cc2c(cc1I)-c1c(cc(OC)c(OC)c1OC)CC[C@@H]2NC(C)=O`, the T/C was 120 % of control (dose: 45.0 mg/kg/injection, schedule: Q01DX010 (ip), vehicle: saline); 115 % of control (dose: 67.0 mg/kg/injection, schedule: Q01DX010 (ip), vehicle: saline); 115 % of control (dose: 100.0 mg/kg/injection, schedule: Q01DX010 (ip), vehicle: saline); 111 % of control and 115 % of control (dose: 150.0 mg/kg/injection, schedule: Q01DX010 (ip), vehicle: saline); 100 % of control (dose: 225.0 mg/kg/injection, schedule: Q01DX010 (ip), vehicle: saline).
Take `O=NN(CCCl)C(=O)NCCCl`: the T/C (dose: 1.0 mg/kg/injection, schedule: Q01DX Z (ip), vehicle: saline) was 95 % of control; the T/C (dose: 2.0 mg/kg/injection, schedule: Q01DX Z (ip), vehicle: saline) was 112 % of control and 96 % of control; the T/C under setting [4] was 220 % of control; the T/C (dose: 4.0 mg/kg/injection, schedule: Q01DX Z (ip), vehicle: saline) was 114 % of control and 116 % of control; the T/C under setting [5] was 290 % of control and 300 % of control; the T/C (dose: 8.0 mg/kg/injection, schedule: Q01DX Z (ip), vehicle: saline) was 118 % of control. Moreover, the T/C is, setting by setting: (dose: 12.5 mg/kg/injection, schedule: Q01DX010 (ip), vehicle: saline) 150 % of control; (dose: 16.0 mg/kg/injection, schedule: Q01DX Z (ip), vehicle: saline) 92 % of control.
Regarding `Cc1c2oc3c(C)ccc(C(=O)N[C@@H]4C(=O)N[C@H](C(C)C)C(=O)N5CCC[C@H]5C(=O)N(C)CC(=O)N(C)[C@@H](C(C)C)C(=O)O[C@H]4C)c3nc-2c(C(=O)N[C@@H]2C(=O)N[C@H](C(C)C)C(=O)N3CCC[C@H]3C(=O)N(C)CC(=O)N(C)[C@@H](C(C)C)C(=O)O[C@H]2C)c(N)c1=O` (I: [aThr][dV]P[Sar][NMeV] / II: [aThr][dV]P[Sar][NMeV]; ester I:1-I:C, II:1-II:C; linker I:N-II:N via Actinocin(9to1)), the T/C was 103 % of control (dose: 0.7 micrograms/kg/injection, schedule: Q01DX Z (ip), vehicle: saline); 94 % of control (dose: 1.5 micrograms/kg/injection, schedule: Q01DX Z (ip), vehicle: saline); 110 % of control (dose: 6.2 micrograms/kg/injection, schedule: Q01DX Z (ip), vehicle: saline); 155 % of control (dose: 12.5 micrograms/kg/injection, schedule: Q01DX010 (ip), vehicle: other); 190 % of control and 205 % of control (dose: 25.0 micrograms/kg/injection, schedule: Q01DX010 (ip), vehicle: other); 119 % of control (dose: 25.0 micrograms/kg/injection, schedule: Q01DX Z (ip), vehicle: saline). For the same molecule, the T/C (dose: 50.0 micrograms/kg/injection, schedule: Q01DX010 (ip), vehicle: other) is 180 % of control and 245 % of control; the T/C (dose: 50.0 micrograms/kg/injection, schedule: Q01DX Z (ip), vehicle: saline) was 104 % of control; the T/C (dose: 100.0 micrograms/kg/injection, schedule: Q01DX010 (ip), vehicle: other) was 105 % of control; the T/C (dose: 100.0 micrograms/kg/injection, schedule: Q01DX Z (ip), vehicle: saline) is 102 % of control.
Turning to `N[C@@H](Cc1ccc(N(CCCl)CCCl)cc1)C(=O)O`, the T/C by setting is: (dose: 0.31 mg/kg/injection, schedule: Q01DX Z (ip), vehicle: saline) 159 % of control; (dose: 0.63 mg/kg/injection, schedule: Q01DX Z (ip), vehicle: saline) 206 % of control; (dose: 1.25 mg/kg/injection, schedule: Q01DX Z (ip), vehicle: saline) 193 % of control; (dose: 2.5 mg/kg/injection, schedule: Q01DX Z (ip), vehicle: saline) 229 % of control; (dose: 5.0 mg/kg/injection, schedule: Q01DX Z (ip), vehicle: saline) 217 % of control; (dose: 10.0 mg/kg/injection, schedule: Q01DX Z (ip), vehicle: saline) 107 % of control.
For the molecule `Nc1nc2n[nH]nc2c(=O)[nH]1`, the T/C reads like this: (dose: 50.0 mg/kg/injection, schedule: Q01DX Z (ip), vehicle: other) 175 % of control; (dose: 100.0 mg/kg/injection, schedule: Q01DX Z (ip), vehicle: other) 183 % of control.
In the case of `CCn1cnc2c(=S)nc[nH]c21`, the T/C is 112 % of control (dose: 7.75 mg/kg/injection, schedule: Q01DX Z (ip), vehicle: carboxymethylcellulose (CMC)); 101 % of control (dose: 15.5 mg/kg/injection, schedule: Q01DX Z (ip), vehicle: carboxymethylcellulose (CMC)); 110 % of control and 105 % of control (dose: 15.6 mg/kg/injection, schedule: Q01DX010 (ip), vehicle: saline); 105 % of control (dose: 31.0 mg/kg/injection, schedule: Q01DX Z (ip), vehicle: carboxymethylcellulose (CMC)); 100 % of control and 105 % of control (dose: 31.3 mg/kg/injection, schedule: Q01DX010 (ip), vehicle: saline); 110 % of control and 105 % of control (dose: 62.5 mg/kg/injection, schedule: Q01DX010 (ip), vehicle: saline). In addition, the T/C is 110 % of control (dose: 62.5 mg/kg/injection, schedule: Q01DX Z (ip), vehicle: carboxymethylcellulose (CMC)); 98 % of control (dose: 63.0 mg/kg/injection, schedule: Q01DX Z (ip), vehicle: carboxymethylcellulose (CMC)); 115 % of control (dose: 125.0 mg/kg/injection, schedule: Q01DX010 (ip), vehicle: saline); 86 % of control (dose: 125.0 mg/kg/injection, schedule: Q01DX Z (ip), vehicle: carboxymethylcellulose (CMC)).
For the molecule `Cn1cc(NC(=O)c2cc(NC(=O)CN=C(N)N)cn2C)cc1C(=O)NCCC(=N)N`, the T/C by setting is: (dose: 6.3 mg/kg/injection, schedule: Q01DX Z (ip), vehicle: saline) 102 % of control; (dose: 12.5 mg/kg/injection, schedule: Q01DX Z (ip), vehicle: saline) 100 % of control; (dose: 25.0 mg/kg/injection, schedule: Q01DX Z (ip), vehicle: saline) 92 % of control.
With `C[C@]12CCC(=O)C=C1CC[C@@H]1[C@@H]2C(=O)C[C@@]2(C)[C@H]1CC[C@]2(O)C(=O)CO`, the T/C (dose: 6.25 mg/kg/injection, schedule: Q01DX Z (sc), vehicle: steriod suspending solution) was 103 % of control; the T/C (dose: 12.5 mg/kg/injection, schedule: Q01DX Z (sc), vehicle: steriod suspending solution) was 102 % of control; the T/C (dose: 25.0 mg/kg/injection, schedule: Q01DX Z (sc), vehicle: steriod suspending solution) was 123 % of control and 102 % of control; the T/C (dose: 50.0 mg/kg/injection, schedule: Q01DX Z (sc), vehicle: steriod suspending solution) is 111 % of control; the T/C (dose: 100.0 mg/kg/injection, schedule: Q01DX Z (sc), vehicle: steriod suspending solution) is 116 % of control.
For the molecule `O=C(O)CCCc1ccc(N(CCCl)CCCl)cc1`, the T/C (dose: 0.8 mg/kg/injection, schedule: Q01DX Z (ip), vehicle: carboxymethylcellulose (CMC)) was 90 % of control; the T/C under setting [1] was 92 % of control; the T/C (dose: 3.1 mg/kg/injection, schedule: Q01DX Z (ip), vehicle: carboxymethylcellulose (CMC)) was 102 % of control; the T/C under setting [4] is 105 % of control and 120 % of control; the T/C (dose: 6.2 mg/kg/injection, schedule: Q01DX Z (ip), vehicle: carboxymethylcellulose (CMC)) is 113 % of control; the T/C under setting [5] was 105 % of control and 115 % of control. Besides, the T/C (dose: 6.25 mg/kg/injection, schedule: Q01DX Z (ip), vehicle: carboxymethylcellulose (CMC)) was 86 % of control; the T/C under setting [2] was 107 % of control; the T/C under setting [3] is 114 % of control; the T/C (dose: 50.0 mg/kg/injection, schedule: Q01DX Z (ip), vehicle: carboxymethylcellulose (CMC)) is 102 % of control.
